Source: patent publication US20240261274A1, “TREATMENT OF MYC-DRIVEN CANCERS WITH GSPT1 DEGRADERS” (MONTE ROSA THERAPEUTICS, INC., priority 2021, published 2024)

These compounds were tested against T1, Full length wild-type cereblon CRBN (Homo sapiens, UniProt Q96SW2) (assay: Fluorescence polarization (FP) assay indicating cereblon binding). Conditions: Table 3B; read-out: rFP IC50.
T1 construct: Full length wild-type cereblon CRBN (80.0 nM, 10 μL) was incubated in assay buffer
Method: Compound activity was monitored in a fluorescence polarization (FP) homogeneous assay using 1-[5-({2-[2-(2-{[2-(2,6-dioxopiperidin-3-yl)-1,3-dioxo-2,3-dihydro-1H-isoindol-4-yl]oxy}acetamido)ethoxy]ethyl}carbamoyl)pentyl]-3,3-dimethyl-2-[(1E,3E)-5-[(2E)-1,3,3-trimethyl-5-sulfo-2,3-dihydro-1H-indol-2-ylidene]penta-1,3-dien-1-yl]-3H-indol-1-ium-5-sulfonate as a fluorescent probe. Unless otherwise stated, all reagents were purchased from Sigma Aldrich. Enzymatic reactions were conducted in Perkin-Elmer Black 384 well ProxiPlate Plus (catalogue no. 6008269) in 10 μL total volume. Full length wild-type cereblon CRBN (80.0 nM, 10 μL) was incubated in assay buffer containing 20 mM HEPES (pH 8.0), […], 0.5 mM TCEP and 0.05% Tween 20 in the presence or absence of compound (300 nL). Inhibitors were stored as 10 mM DMSO stocks in an inert environment (low humidity, dark, low oxygen, room temperature) using the Storage Pod System. Compounds and DMSO were dispensed using the Echo E5XX (Labcyte Inc. USA) to give concentrations from 300 to 0.937 or 3000 to 9.3 nM in a 12 data point curve. […] Following incubation at room temperature for 30 min, the assay was initiated by dispensing the probe to a final concentration of 5 nM (2.5 nL of a 20 μM stock) using the Echo E5XX. FP was measured after a period of 12 hours using a Pherastar plate reader (BMG Labtech, Germany) exciting at 590 nm and measuring the amount of parallel and perpendicular light at 675 nm. The FP signal was subsequently normalized to the no-compound control (i.e., DMSO). Analysis and IC50 values were derived using Dotmatics (Dotmatics UK) software.

T1 sequence (Q96SW2 whole entry): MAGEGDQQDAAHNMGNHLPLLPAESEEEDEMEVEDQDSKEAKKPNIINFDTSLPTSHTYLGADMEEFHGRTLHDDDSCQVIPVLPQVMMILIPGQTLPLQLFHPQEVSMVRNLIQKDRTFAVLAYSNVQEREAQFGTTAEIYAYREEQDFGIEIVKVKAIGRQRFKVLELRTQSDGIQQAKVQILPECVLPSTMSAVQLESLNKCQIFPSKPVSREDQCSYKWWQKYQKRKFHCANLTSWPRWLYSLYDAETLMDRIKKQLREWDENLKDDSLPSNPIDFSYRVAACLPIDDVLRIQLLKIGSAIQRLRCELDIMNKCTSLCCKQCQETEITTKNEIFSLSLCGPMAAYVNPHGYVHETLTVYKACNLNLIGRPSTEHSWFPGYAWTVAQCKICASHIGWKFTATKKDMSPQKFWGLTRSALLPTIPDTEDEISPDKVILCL

IC50 [nM]	SMILES
> 1900	Cc1ccc(NC(=O)OCc2cc(F)c3c(c2)C(=O)N(C2CCC(=O)NC2=O)C3)cc1Cl (stereo not shown) [Compound 503]
≤ 600	COc1cc(COC(=O)Nc2ccc3c(c2)OCC3(C)C)cc2c1CN(C1CCC(=O)NC1=O)C2=O (stereo not shown) [Compound 537]
≤ 600	COc1cc(COC(=O)Nc2cccc(OC3CC3)c2)cc2c1CN(C1CCC(=O)NC1=O)C2=O (stereo not shown) [Compound 558]
≤ 600	COc1cc(COC(=O)Nc2cc(-c3ccccc3)ccn2)cc2c1CN(C1CCC(=O)NC1=O)C2=O (stereo not shown) [Compound 556]
≤ 600	Cc1ccccc1-c1ccc(NC(=O)OCc2cc(F)c3c(c2)C(=O)N(C2CCC(=O)NC2=O)C3)cn1 (stereo not shown) [Compound 519]
≤ 600	COc1cc(COC(=O)Nc2cc(C)cc(C)c2)cc2c1CN(C1CCC(=O)NC1=O)C2=O (stereo not shown) [Compound 552]
≤ 600	COc1cc(COC(=O)Nc2cccc(OC(F)F)c2)cc2c1CN(C1CCC(=O)NC1=O)C2=O (stereo not shown) [Compound 553]
> 1900	Cc1cc(C)cc(NC(=O)OCc2cc(F)c3c(c2)C(=O)N(C2CCC(=O)NC2=O)C3)c1 (stereo not shown) [Compound 531]
> 1900	CC(C)(C)c1cccc(NC(=O)OCc2cc(F)c3c(c2)C(=O)N(C2CCC(=O)NC2=O)C3)c1 (stereo not shown) [Compound 525]
> 1900	O=C1CCC(N2Cc3c(F)cc(COC(=O)Nc4ccc(-c5ccccc5)nc4)cc3C2=O)C(=O)N1 (stereo not shown) [Compound 508]
> 1900	Cc1ccc(NC(=O)OCc2cc(F)c3c(c2)C(=O)N(C2CCC(=O)NC2=O)C3)cc1OC(F)F (stereo not shown) [Compound 535]

Same assay, conditions: bound stated; read-out: IC50 value

IC50 [nM]	SMILES
< 1100	CC1COc2cc(NC(=O)OCc3ccc4c(c3)C(=O)N(C3CCC(=O)NC3=O)C4)ccc21 (stereo not shown) [Compound 303]
< 1100	COc1ccccc1CNC(=O)OCc1ccc2c(c1)C(=O)N(C1CCC(=O)NC1=O)C2 (stereo not shown) [Compound 297]

Same assay, conditions: bounds stated; read-out: IC50 value

IC50 [nM]	SMILES
< 600	COc1ccc(CNC(=O)NCc2ccc3c(c2)C(=O)N(C2CCC(=O)NC2=O)C3)cc1 (stereo not shown) [Compound 52]
< 600	Cc1ccccc1NC(=O)NCc1ccc2c(c1)C(=O)N(C1CCC(=O)NC1=O)C2 (stereo not shown) [Compound 37]
< 600	COc1ccc(NC(=O)NCc2ccc3c(c2)C(=O)N(C2CCC(=O)NC2=O)C3)cc1 (stereo not shown) [Compound 5]
< 600	CC(C)(C)c1ccc(NC(=O)NCc2ccc3c(c2)C(=O)N(C2CCC(=O)NC2=O)C3)cc1 (stereo not shown) [Compound 56]
< 600	O=C1CCC(N2Cc3ccc(CNC(=O)NC4CCCc5ccccc54)cc3C2=O)C(=O)N1 (stereo not shown) [Compound 40]
< 600	O=C1CCC(N2Cc3ccc(CNC(=O)Nc4ccc(C(F)(F)F)cc4)cc3C2=O)C(=O)N1 (stereo not shown) [Compound 41]
< 600	COc1ccc(NC(=O)NCc2ccc3c(c2)C(=O)N(C2CCC(=O)NC2=O)C3)c(C)c1 (stereo not shown) [Compound 23]
< 600	COc1ccccc1NC(=O)NCc1ccc2c(c1)C(=O)N(C1CCC(=O)NC1=O)C2 (stereo not shown) [Compound 7]
< 600	O=C1CCC(N2Cc3ccc(CNC(=O)Nc4ccccc4F)cc3C2=O)C(=O)N1 (stereo not shown) [Compound 48]
< 600	CC(C)c1ccc(NC(=O)NCc2ccc3c(c2)C(=O)N(C2CCC(=O)NC2=O)C3)cc1 (stereo not shown) [Compound 57]
< 600	Cc1c(Cl)cccc1NC(=O)NCc1ccc2c(c1)C(=O)N(C1CCC(=O)NC1=O)C2 (stereo not shown) [Compound 19]
< 600	O=C1CCC(N2Cc3ccc(CNC(=O)Nc4ccc(F)c(Cl)c4)cc3C2=O)C(=O)N1 (stereo not shown) [Compound 42]
< 600	COc1cccc(CNC(=O)NCc2ccc3c(c2)C(=O)N(C2CCC(=O)NC2=O)C3)c1 (stereo not shown) [Compound 53]
< 600	Cc1ccc(F)cc1NC(=O)NCc1ccc2c(c1)C(=O)N(C1CCC(=O)NC1=O)C2 (stereo not shown) [Compound 62]
< 600	Cc1cccc(NC(=O)NCc2ccc3c(c2)C(=O)N(C2CCC(=O)NC2=O)C3)c1 (stereo not shown) [Compound 43]
< 600	C[C@@H](NC(=O)NCc1ccc2c(c1)C(=O)N(C1CCC(=O)NC1=O)C2)c1ccccc1 (stereo partly shown) [Compound 54]

The remaining lines, values behind:

SMILES	IC50 [nM]
O=C1CCC(N2Cc3ccc(CNC(=O)Nc4cc(Cl)cc(Cl)c4)cc3C2=O)C(=O)N1 (stereo not shown) [Compound 38]	< 600
O=C1CCC(N2Cc3ccc(CNC(=O)NCC4CC4)cc3C2=O)C(=O)N1 (stereo not shown) [Compound 26]	< 600
